Data on 78 compounds can be found in the METLIN SMRT retention time set (Domingo-Almenara et al. 2019).

This data set can be described thus: gradient 5% acetonitrile 3 min, to 50% in 2 min, to 85% in 15 min, held 3 min, 100 µL/min. As to conditions: column: Zorbax Extend-C18 2.1 x 50 mm; eluents: water / acetonitrile, 0.1% formic acid. In a few lines:
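Standards, all pure, were combined into mixtures of ~100 molecules and run at 100 μL/min on a Zorbax Extend-C18 column (2.1 × 50 mm, 1.8 μm) with water and acetonitrile, each containing 0.1% formic acid. A coupled quadrupole time-of-flight mass spectrometer operated in positive and negative ionization mode. Retention time values come from computationally picked adduct peaks, each inspected manually.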
The compound `CC(C)Cn1cc(S(=O)(=O)NCc2cccc(C(F)(F)F)c2)c2cccnc21` displayed an RP-LC retention time of 1070 s.

Compound `COc1cccc(-c2nc(C3CCN(C(=O)c4cc5ccccc5[nH]4)CC3)no2)c1` displayed an RP-LC retention time of 1040 s.

For the compound `COc1cccc(-c2cc(N3CCN(C(=O)Nc4ccc5c(c4)OCCO5)CC3)ncn2)c1`, the RP-LC retention time came to 660 s. `Cc1sc2cc(C(=O)N3CCN(c4ccc(F)cc4)CC3)[nH]c2c1CN1CCOCC1` yielded an RP-LC retention time of 690 s. Take `O=C(c1[nH]nc2c1CCc1ccccc1-2)N1CCC(c2noc(-c3ccncc3)n2)C1` (stereo not drawn): the RP-LC retention time is 755 s. Take `CNC(=O)N1CCc2ccc(C(=O)NC(C)(C)C)cc21`: the RP-LC retention time came out at 661 s. With `Cc1cc(N2CCN(C)CC2)nc2ccc(NC(=O)C(C)Oc3ccc(Cl)cc3Cl)cc12` (stereo not drawn) the figure was 690 s; with `CCC1CN(C(=O)Nc2ccccc2)c2ccccc2O1` (stereo not drawn), 1020 s. The compound `CCNc1nc(C)cc(N2CCN(S(=O)(=O)c3cccc(C)c3)CC2)n1` came in with an RP-LC retention time of 708 s. Turning to `COc1ccc(Nc2c(C(=O)N3CCCCC3)cnc3nc(C)ccc23)cc1`, the RP-LC retention time was found to be 605 s. With `COc1ccccc1-n1ccn(Cc2nc(-c3ccc(Cl)cc3)no2)c(=O)c1=O`, the RP-LC retention time was 874 s. To `Cc1ccc(NS(=O)(=O)c2cc(-c3nc(C(C)(C)C)cs3)cs2)cc1` belongs 1210 s. With `CCc1noc(NC(C)=O)c1-c1ccc(C)c(S(=O)(=O)NCc2ccccc2Cl)c1`, the RP-LC retention time turned out to be 914 s. The compound `CCOC(=O)Cn1cc(S(=O)(=O)N2CCCC2)ccc1=O` registered an RP-LC retention time of 696 s. Compound `Cc1c(C)n(C)c2ccc(C(N)=O)cc12` gave an RP-LC retention time of 704 s. For the compound `Cc1cc(C)c(NC(=O)C2CCN(c3c(C(=O)N4CCOCC4)cnc4snc(C)c34)CC2)c(C)c1`, the RP-LC retention time is 826 s. To `Cc1nc(-c2cc(S(=O)(=O)NCC(=O)NCc3ccccc3Cl)c(C)s2)no1` belongs 870 s.

For `CCN(CC)c1nc2cc(C(=O)N3CCN(c4ccccn4)CC3)ccc2c(=O)n1-c1ccccc1`, the RP-LC retention time turned out to be 693 s. As for `Cc1noc2nc(C)n(CC(=O)Nc3ccc(F)cc3)c(=O)c12`, the RP-LC retention time turned out to be 765 s. On to `CCOC(=O)C1CCN(C(=O)c2csc(Nc3ccc(S(C)(=O)=O)cc3)n2)CC1`, for which the RP-LC retention time amounted to 620 s.

`CCOc1ccc(Nc2cc(C(=O)N3CCCC(C)C3)nc3ccc(C)cc23)cc1` (stereo not drawn) registered an RP-LC retention time of 776 s. For `COc1ccc(CNC(=O)Nc2cc3c(cc2N2CCOCC2)n(C)c(=O)n3C)cc1`, the RP-LC retention time came to 694 s.

Compound `Cc1csc(-c2cc(S(=O)(=O)NCCCN3CCC(C)CC3)c(C)s2)n1` displayed an RP-LC retention time of 675 s. With `CCOC(=O)c1ccc(NC(=O)COc2cc(C)nc(N3CCCC3)n2)cc1` the figure was 591 s; with `COc1ccc(N2C=C(C(=O)N3CCOCC3)S(=O)(=O)c3ccc(Cl)cc32)cc1Cl`, 886 s. Turning to `CC1CCN(C(=O)Cn2nc(C(=O)N3CCCC3)c3ccccc32)CC1`, the RP-LC retention time came out at 846 s.

The compound `Cc1nc(-c2cn(C(C)C)c3ncccc23)sc1C(=O)N1CCN(C)CC1` returned an RP-LC retention time of 611 s. Take `Cc1ccc(CN2N=C(C(=O)N3CCOCC3)S(=O)(=O)c3cc(Cl)ccc32)cc1`: the RP-LC retention time came to 896 s. For the compound `Cc1cc(C)cc(NC(=O)Cn2nc(N3CCCCCC3)c3ccccc3c2=O)c1`, the RP-LC retention time was determined as 1110 s. Compound `CNC(=O)Nc1ccc(C2(C(=O)Nc3cc(C)cc(C)c3)CCC2)cc1` showed an RP-LC retention time of 822 s. `Cc1nn(-c2nc(-c3ccc(Cl)cc3)cs2)c(C)c1CC(=O)N1CCCCC1C` (stereo not drawn) showed an RP-LC retention time of 1310 s. Turning to `CN1C(=O)CCc2cc(NS(=O)(=O)c3ccc(Cl)c(Cl)c3)ccc21`, the RP-LC retention time worked out at 1040 s.

`CCOC(=O)Nc1c(Cl)n(C)c(=O)n(C)c1=O` registered an RP-LC retention time of 648 s. On to `CC1CCN(c2nn(CC(=O)Nc3ccccc3F)c(=O)c3ccccc23)CC1`, for which the RP-LC retention time is 1090 s. With `O=C(NCC1CCCO1)c1ccccc1NC(=O)C1CCN(C(=O)c2ccc(F)cc2)CC1` (stereo not drawn) the figure was 762 s; with `COc1ccc(NC(=O)Cc2nnc(-c3ccc4ncccc4c3)o2)cc1OC`, 655 s.

As to `CCCc1ccc(S(=O)(=O)N2CCC3(CC2)NCCN=C3NCc2ccc(OC)cc2)cc1`, the RP-LC retention time was determined as 826 s. To `CCOc1ccc(-c2cc3c(=O)n(Cc4nc(-c5ccc(SC)cc5)no4)ncn3n2)cc1` belongs 1210 s; to `Cc1ccc(CNC(=O)C2CCN(Cc3cc4ccccc4n3Cc3cccc(Cl)c3)CC2)o1`, 943 s. With `CCOC(=O)c1c(C)oc2nc(C)nc(NCCN3CCN(c4ccc(OC)cc4)CC3)c12` the figure was 732 s. To `CC(C)N1CCN(c2cc(-c3nc(-c4cccc(F)c4)no3)c3ccccc3n2)CC1` belongs 890 s; to `Cc1oc2nc3c(c(NC(=O)CN4CCCC4=O)c2c1C)CCCC3`, 687 s. `COC(=O)CNC(=O)N1CCC(N2C(=O)C3(CCCC3)C2c2scnc2C)CC1` (stereo not drawn): the RP-LC retention time stood at 653 s. `CCOc1ccc(NC(=O)Cn2nc(N3CCCC3)c3ccccc3c2=O)cc1` returned an RP-LC retention time of 809 s. `COCCNC(=O)c1nnn(-c2ccc(F)cc2)c1-c1ccncc1` came in with an RP-LC retention time of 663 s.

With `CC1CCN(C(=O)C2=NN(Cc3ccc(F)cc3)c3ccccc3S2(=O)=O)CC1`, the RP-LC retention time turned out to be 1000 s. With `Cc1cc2nc(C(=O)Nc3ccccc3F)cc(C)n2n1` the figure was 1000 s. To `CCC(C(=O)N(C)CCc1noc(-c2ccc(C(=O)N3CCCC3)cc2)n1)c1ccccc1` (stereo not drawn) belongs 872 s; to `Cc1ccc(CNC(=O)N2CCN(Cc3nc4cc(-c5ccccc5)ccc4o3)CC2)cc1`, 854 s; to `CCc1noc(NC(C)=O)c1-c1ccc(C)c(S(=O)(=O)Nc2cc(C)ccc2OC)c1`, 884 s. For the compound `COc1ccc2c(c1)C1(CCN(S(=O)(=O)c3cc(F)ccc3C)C1)C(=O)N2` (stereo not drawn), the RP-LC retention time was determined as 857 s. Regarding `CCn1ccc(C(=O)N2CCC(c3noc(-c4ccncc4)n3)C2)n1` (stereo not drawn), the RP-LC retention time came to 665 s. With `COc1cc2ncnc(Nc3cccc(Br)c3)c2cc1OC`, the RP-LC retention time was 771 s. The compound `COc1cccc(NC(=O)C2CCCN(c3nc4ccsc4c(=O)n3-c3cccc(OC)c3)C2)c1` (stereo not drawn) yielded an RP-LC retention time of 921 s. To `COc1ccc(CCS(=O)(=O)NCC(c2cccn2C)N2CCOCC2)cc1` (stereo not drawn) belongs 594 s; to `CCOc1ccc(-c2nc(Cc3noc(-c4cccnc4)n3)c(C)o2)cc1`, 967 s; to `O=C(NCc1ccc(F)cc1)C1CCCN(c2ncnc3c2nc2n3CCCCC2)C1` (stereo not drawn), 759 s.

`COc1ccc(CNC(=O)Cn2c(=O)cc(-c3nc(C4CC4)no3)c3ccccc32)cc1` had an RP-LC retention time of 888 s.

As for `O=C(NCc1ccccc1)c1ccc2c(c1)Sc1ncccc1C(=O)N2C1CC1`, the RP-LC retention time is 640 s. To `CC(CCNC(=O)c1nnc(-c2ccc(S(=O)(=O)N3CCOCC3)cc2)o1)N1CCCCCC1` (stereo not drawn) belongs 605 s; to `O=C(CCSc1ccccc1)Nc1cccc2ccc(-n3ccnc3)nc12`, 648 s.

`c1ccc2c(N3CCCC3)nnc(-c3nc(C4CC4)no3)c2c1` yielded an RP-LC retention time of 649 s. For `Cn1cc(-c2ccccc2)cc1C(=O)NCCCN1CCOCC1`, the RP-LC retention time came to 636 s.

Compound `COc1ccc(NC(=O)c2cc(C)n3nccc3n2)cc1Cl` returned an RP-LC retention time of 942 s.

As to `COc1cc(CNC(=O)c2nc(CCS(=O)(=O)c3ccc(F)cc3)no2)cc(OC)c1OC`, the RP-LC retention time is 788 s. To `O=C(c1nnn(-c2ccc(Cl)cc2)c1-c1cccnc1)N1CCSCC1` belongs 780 s; to `O=S(=O)(c1ccc(-c2noc(-c3ccccc3Cl)n2)cc1)N1CCCC1`, 1200 s. Regarding `Cc1cc(=O)oc2cc(OCC(O)CN3CCN(c4ccccn4)CC3)ccc12` (stereo not drawn), the RP-LC retention time was 574 s. In the case of `O=C(NC1CCCCC1)C1CCCN(S(=O)(=O)c2c[nH]c(C(=O)N3CCCC3)c2)C1` (stereo not drawn), the RP-LC retention time was 759 s. With `Cc1ccc(C)c(CN2CCC(CNC(=O)c3c(C)oc4c3C3=NCCN3C=N4)CC2)c1`, the RP-LC retention time stood at 561 s. Regarding `Cc1ccc2c(c1)N(S(C)(=O)=O)CCC(C(=O)Nc1cccc(OC(C)C)c1)O2` (stereo not drawn), the RP-LC retention time was determined as 893 s. `Cc1ccc(-c2noc(-c3ccc(=O)n(Cc4cc(C)ccc4C)c3)n2)cc1`: the RP-LC retention time was determined as 1260 s. As for `CCc1nc(N)n(CC(=O)Nc2ccc(Cl)cc2)c(=O)c1C`, the RP-LC retention time was determined as 661 s. `Nc1ccc(S(=O)(=O)NCC2CCCCO2)cc1` (stereo not drawn) came in with an RP-LC retention time of 733 s. Regarding `COc1ccccc1NC(=O)N(C)CCc1noc(COc2ccc(Cl)cc2)n1`, the RP-LC retention time was found to be 972 s. For the compound `O=C(c1ccc2ccnc(N3CCN(c4ccc(Cl)cc4)CC3)c2c1)N1CCCCC1`, the RP-LC retention time was 894 s. For the compound `CCc1ccc(-c2noc(CN3C(=O)C(C)Oc4ccccc43)n2)cc1` (stereo not drawn), the RP-LC retention time amounted to 1160 s.

The compound `COc1cc(OC)cc(C(=O)Nc2nc(C(=O)NC(C)c3ccccc3)cs2)c1` (stereo not drawn) gave an RP-LC retention time of 873 s.
